Article PMC6386362, “Mechanism and resistance for antimycobacterial activity of a fluoroquinophenoxazine compound” (PLoS ONE, 2019)

Biological target: T1, Mtb topoisomerase I (MtbTopI) (Mycobacterium tuberculosis, UniProt P9WG49)
T1 construct: gene topA
Assay type: biochemical

T1 sequence (P9WG49 whole entry): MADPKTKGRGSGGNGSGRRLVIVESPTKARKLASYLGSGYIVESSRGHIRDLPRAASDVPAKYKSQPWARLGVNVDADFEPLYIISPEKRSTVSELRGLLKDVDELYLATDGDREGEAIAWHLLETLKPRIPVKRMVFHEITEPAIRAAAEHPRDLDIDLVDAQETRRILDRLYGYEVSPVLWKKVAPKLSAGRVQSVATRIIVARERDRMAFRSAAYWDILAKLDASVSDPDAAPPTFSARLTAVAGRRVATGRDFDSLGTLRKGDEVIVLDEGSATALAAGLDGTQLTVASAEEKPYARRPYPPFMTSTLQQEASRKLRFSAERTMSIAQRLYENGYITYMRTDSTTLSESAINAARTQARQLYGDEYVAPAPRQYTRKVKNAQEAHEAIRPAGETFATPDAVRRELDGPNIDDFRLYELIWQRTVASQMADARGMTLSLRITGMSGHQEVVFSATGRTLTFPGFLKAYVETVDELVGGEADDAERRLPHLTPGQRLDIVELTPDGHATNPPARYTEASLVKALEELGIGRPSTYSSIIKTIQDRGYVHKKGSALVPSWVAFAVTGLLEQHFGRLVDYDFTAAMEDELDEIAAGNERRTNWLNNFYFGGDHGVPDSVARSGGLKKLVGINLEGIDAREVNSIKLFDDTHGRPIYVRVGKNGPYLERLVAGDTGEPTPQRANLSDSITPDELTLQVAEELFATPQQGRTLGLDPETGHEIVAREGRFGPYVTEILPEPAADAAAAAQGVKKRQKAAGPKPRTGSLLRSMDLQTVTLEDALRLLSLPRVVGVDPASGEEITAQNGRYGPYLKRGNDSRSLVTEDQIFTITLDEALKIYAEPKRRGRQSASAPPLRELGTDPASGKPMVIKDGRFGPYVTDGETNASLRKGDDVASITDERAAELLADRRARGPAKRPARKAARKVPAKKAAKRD

SMILES: Nc1ccc2c(c1)Oc1c(N3CCC(N4CCCCC4)CC3)c(F)cc3c(=O)c(C(=O)O)cn-2c13 [FP-11g]
- IC50: 240 ± 40 nM
